Laboratory results published in PubChem BioAssay (NCI).
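Cultured in 96-well plates, cells were exposed to test compound for 48 hours across five concentrations. Abbreviation: GI50, concentration required for 50% inhibition of growth. TGI is the concentration that stops growth completely.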

How the values were obtained:
Assay in all cases: growth of human tumour cells (NCI), 48 h
DU-145 prostate = test system: DU-145 prostate
EKVX NSCLC = test system: EKVX NSCLC
NCI-H23 lung = test system: NCI-H23 lung
RPMI-8226 leukemia = test system: RPMI-8226 leukemia
SF-539 CNS = test system: SF-539 CNS
SK-MEL-5 melanoma = test system: SK-MEL-5 melanoma
SNB-19 CNS = test system: SNB-19 CNS
SNB-75 CNS = test system: SNB-75 CNS

Row | SMILES | GI50 (DU-145 prostate) [µM] | TGI (DU-145 prostate) [µM] | GI50 (EKVX NSCLC) [µM] | TGI (EKVX NSCLC) [µM] | GI50 (NCI-H23 lung) [µM] | TGI (NCI-H23 lung) [µM] | GI50 (RPMI-8226 leukemia) [µM] | TGI (RPMI-8226 leukemia) [µM] | GI50 (SF-539 CNS) [µM] | TGI (SF-539 CNS) [µM] | GI50 (SK-MEL-5 melanoma) [µM] | TGI (SK-MEL-5 melanoma) [µM] | GI50 (SNB-19 CNS) [µM] | TGI (SNB-19 CNS) [µM] | GI50 (SNB-75 CNS) [µM] | TGI (SNB-75 CNS) [µM]
1 | CCOP(=O)(OCC)C(NC(c1ccccc1)c1ccccc1)c1ccc(C(C)C)cc1 (stereo unspecified) | 8.41 | 25.5 | 6.01 | 20.4 | 6.38 | 20.7 | 2.65 | 9.99 | 13.1 | 30 | 3.35 | 7.86 | 26.6 | > 100 | 5.28 | 25.9
2 | CCC(C(=O)[C@@H](C)[C@@H](O)[C@H](C)[C@@H]1O[C@@H]([C@@H](CC)C(=O)ONC(=O)c2ccccc2)CC[C@@H]1C)[C@H]1O[C@]2(C=CC(=O)[C@]3(CC[C@@](C)([C@H]4CC[C@](O)(CC)[C@H](C)O4)O3)O2)[C@H](C)C[C@@H]1C (stereo partly specified) | 0.511 | 1.98 | 0.548 | 2.65 | 0.175 | 2.08 | 0.0838 | 2.3 | 0.262 | 1.71 | 0.105 | 0.361 | 0.588 | 3.43 | 0.238 | 2.04
3 | CC(=O)c1ccc(Oc2c3ccccc3nc3occc23)cc1 | 15.6 | > 100 | 73.3 | > 100 | 18.9 | > 100 | 4.63 | > 100 | 2.53 | 8.41 | 8.75 | > 100 | 7.98 | > 100 | 21.1 | > 100
4 | C=C1C(O)C2CC(C)(C)C(=O)C2=C(CC(C)C)C12CC2 (stereo unspecified) | > 100 | > 100 | > 100 | > 100 | > 100 | > 100 | 36 | > 100 | > 100 | > 100 | > 100 | > 100 | > 100 | > 100 |  | 
5 | Cc1ccc2c(c1)C(O)(c1ccccc1)CCS2 (stereo unspecified) |  | > 100 |  | > 100 |  | 89.9 |  |  |  | 55 |  | > 100 |  | > 100 |  | > 100
6 | Nc1cc(N)c2nc(-c3ccccc3)c(NCc3ccc(Cl)c(Cl)c3)nc2c1 | 16.2 | 33.4 | 10.9 | 38.7 | 14.2 | 27.8 | 1.66 | 3.72 | 4.6 | 18.8 | 3.48 | 10.7 | 22.5 | 50.8 |  | 
7 | Nc1nc(N)c(-c2ccc(Cl)c(Cl)c2)c(CP(Cl)(Cl)(Cl)Br)n1 | 9.33 | > 100 |  |  | 19.6 | > 100 | 17.3 | > 100 | 12.9 | > 100 | 6.72 | 56.6 | 31.9 | > 100 | 39.7 | > 100
8 | CCOC(=O)c1ccc(NC(=O)c2cccc(NC3=C(Cl)C(=O)N(Cc4ccccc4)C3=O)c2)cc1 | > 100 | > 100 | > 100 | > 100 |  |  | 37.5 | > 100 | > 100 | > 100 | > 100 | > 100 | > 100 | > 100 | > 100 | > 100
